Experimental findings from publication PMC8573827, “Zinc protoporphyrin binding to telomerase complexes and inhibition of telomerase activity” (Pharmacology Research & Perspectives, 2021) are described below.

Experiment [1] concerns TERT, β-catenin, and cyclin D1 expression. The experiment is described as follows: Western blot of proliferative proteins in Huh7 cells. To be noted: Huh7, 48 h. Format: cell-based, human. As for the experimental part:
For SDS ‐PAGE, cellular lysates, and protein preparations such as IP were dissolved in Laemmli buffer, boiled for 1 min and separated on denaturing SDS gels as described.[28] After electrophoretic transfer of separated proteins to nitrocellulose sheets, western blot immunoassays employed enhanced chemiluminescence for signal detection (ECL^TM Prime, Amersham).[28]
On the technique in general: In western blotting, separated proteins are transferred to a membrane and probed.

Experiment [2] concerns Huh7 cells. Nature of the experiment: Annexin V apoptosis assay, Huh7. The experiment is classed as cell-based, human. Conditions: Huh7, 10 µM, 48 h. The protocol: (§1) For detection of MPP apoptotic effects, cells were treated with MPPs (0, 2.5, 5 and 10 µM) for 48 h and assayed using PE Annexin V Apoptosis Detection Kit (Cat. No. 559763, BD Biosciences) as recommended by the manufacturer.

For experiment [3], the system named is Huh7 cells. Nature of the experiment: DNA synthesis, 3H-thymidine incorporation, Huh7. Format: cell-based, human. To be noted: Huh7, 10 µM MPP, 24–72 h. The protocol: (§2) Semi‐quantitative differences in DNA synthesis were determined by measuring ^3H‐thymidine uptake into whole cells in log phase growth. At indicated time points, cell cultures were washed with serum‐free, thymidine deficient medium, then incubated with fresh medium containing 1 μCi/ml of ^3H‐thymidine for two hours at 37°C. Cultures were washed twice with PBS while attached to dishes, then lysed with 0.5 M NaOH and the relative amount of ^3H‐thymidine quantified by scintillation counting.
Background: Dividing cells build labelled thymidine or BrdU into new DNA.

Experiment [4] has as its system Hek293 cells. Nature of the experiment: DNA synthesis, 3H-thymidine incorporation, Hek293. Format: cell-based, human. Conditions: Hek293, 10 µM MPP, 24–72 h. The protocol:
as §2

Experiment [5] relates to high molecular weight complexes containing telomerase. The experiment is described as follows: Fluorescent labelling of cellular lysate complexes on non-denaturing 0.8% agarose gels. Format: binding, human. To be noted: Huh7 lysates, fluorescence visualization. The protocol:
0.8% Agarose gels were run in Tris‐Borate‐EDTA buffer using standard slab gels as described for high molecular weight complexes.[27] Cell lysates were produced by lysing Hek293 and Huh7 cells in NP40 buffer (25 mM HEPES‐KOH, 150 mM KCl, 1.5mM MgCl2, 10% glycerol, 0.5% NP40, 5 mM 2ME, pH 7.5 supplemented with protease inhibitors) for 30 min on ice. Extracts were clarified by centrifugation for 16 000 g for 10 min. The protein concentration was determined by Bradford assay. The indicated amounts of proteins were treated with different amounts of ZnPP for 2 h on ice, and then separated on 0.8% Agarose gels prepared with 0.5xTris‐Borate‐EDTA (TBE) buffer. The gels were run at 100 V for 2 h at 4 °C in 0.5x TBE buffer. […] No antibody and normal rabbit IgG (sc‐2027, Santa Cruz Biotechnology) were included as controls. The IP products were treated with ZnPP and electrophoresed as above. Free ZnPP and ZnPP bound to large complexes were visualized using a wide‐wavelength UV lightbox or with red fluorescence using excitation (EX) 608–632 nm and emission (EM) 675–720 nm. Thyroglobulin (670 kD), a heavy MW marker, was run in parallel lanes and visualized with Coomassie Blue staining or fluorescence to size the complexes. In some cases, cell lysates or IP were incubated with RNase A (Life Technologies, NY); or DNase 1 (Qiagen, CA) 100 µg/ml for 1 h at 4 °C prior to electrophoresis.

Experiment [6] deals with Hek293 cells. Nature of the experiment: MTT cell proliferation/viability assay, Hek293. The experiment is classed as cell-based, human. To be noted: Hek293, 10 µM MPP, 48 h. The protocol: (§3) MPPs were tested for effects on cell proliferation and viability using MTT (3‐(4,5‐dimethylthiazol‐2‐yl)‐2,5‐diphenyltetrazolium bromide) dye conversion assay (Cell Titer 96, Promega) as we described[22] with some modifications. Cells were plated into 96 well plates and allowed to attach overnight. MPPs were added to the cultures and then incubated for the times indicated. At assay time, MTT reagent was added and absorbance measured at 570 nm. Controls included buffer blanks containing MPP because of background absorbances reported for MPPs by us[22] and others.[23] The formula used for determination of viable cells relative to controls was: %viablecells=(abssample‐absblank)/(absconrtrol‐absblank)×100

Experiment [7] deals with U2OS cells. Nature of the experiment: MTT cell proliferation/viability assay, telomerase negative U2OS. Format: cell-based, human. To be noted: 48 h. As for the experimental part: as §3
For experiment [8], the system named is U2OS cells. Nature of the experiment: Annexin V apoptosis assay, U2OS. The experiment is classed as cell-based, human. To be noted: 48 h. The protocol: as §1
In experiment [9] the test system is Huh7 cells. The experiment is described as follows: MTT cell proliferation/viability assay, Huh7. The experiment is classed as cell-based, human. To be noted: Huh7, 10 µM MPP, 48 h. As for the experimental part:
as §3

In a further experiment the target is T1, Taq DNA polymerase (Thermus aquaticus, UniProt P19821).
T1 construct: purchased Perkin‐Elmer Cetus, Norwalk, CT
The experiment is described as follows: Taq polymerase inhibition test, MPP added after the telomerase extension step of TRAP. Format: biochemical. Conditions: TRAP, MPP added for the amplification steps only. As for the experimental part: For TRAP assay, a Quantitative Telomerase Detection Kit (US Biomax, Inc) was used to assay cellular lysates or TERT immunoprecipitates (IP) according to the manufacturer's directions. Relative telomerase activity was derived from a standard curve of reference samples and data were analyzed using relative fluorescence units as compared to controls. In some cases, telomerase reaction products were visualized and quantified with TRAPeze system (EMD/Millipore). After separation of the DNA products using 10% non‐denaturing PAGE and SYBR fluorescence labeling [1x SYBR safe DNA gel stain (Invitrogen)], gel bands were imaged with iBright 1500 (Invitrogen). The intensity of the sample's TRAP ladder and internal control was first measured using GelAnalyzer [GelAnalyzer 19.1 (www.gelanalyzer.com )] as recommended. Then, the relative telomerase activity was determined by the ratio of the intensity of the sample's TRAP ladder (telomerase products, TP) to that of the internal control (IC) band.
Because of concerns that some quadruplex ligands inhibit Taq DNA polymerase in addition to telomerase, we assayed MPP inhibition at both steps of the TRAP procedure with a strategy similar to that of others.[36] Using equivalent extracts but separate assays, MPP was either included in the telomerase RT extension step or the extension step was conducted without MPP and then MPP added only for the amplification steps with Taq DNA polymerase. To avoid further potential errors introduced by Real‐time quantification, TRAP products were labeled with SYBR green, visualized on denaturing gels, and each lane was quantified by density measurements as described in the Methods. The latter step also ruled out the possibility that decreases in activity were artifactual due to fluorescence signal quenching by some MPPs.[37] […] All three MPPs had minimal effects on Taq polymerase […] and the slight inhibition of Taq polymerase seen for ZnPP was not directly concentration‐dependent.
Enzymatic extracts were prepared from semi-confluent Huh7 cells and aliquots were assayed in triplicate using TRAP assay. CoPP was added to RT-PCR reactions either before or after the RT telomere elongation step to test whether it inhibited Taq polymerase. Visualization of amplified telomeric products was on 12% denaturing gels using SYBR fluorescence labelling (upper panels). Quantification was with densitometry as described in Methods and plot shown (lower panel). Plotted points represent the mean +/- SD with n =3. (IC)= internal Taq polymerase control.

Experiment [10] has as its system Hek293 cells. Nature of the experiment: Annexin V apoptosis assay, Hek293. Format: cell-based, human. To be noted: Hek293, 10 µM, 48 h. The protocol:
as §1

Experiment [11] deals with TERT transfected U2OS cells. The experiment is described as follows: MTT viability assay in U2OS cells transfected with human TERT. Format: cell-based. To be noted: U2OS transfected with pCI neo-hEST2, ZnPP 48 h. The protocol:
Lipofectamine^T ^M 2000 (ThermoFisher) was used for all transfections and closely followed the manufacturer's protocol. For TERT overexpression the catalytically active TERT plasmid pCI neo‐hEST2, a gift from Dr. Robert Weinberg (Addgene plasmid # 1781)[19] was used. Telomerase RNA component (TERC) plasmid (pBS U3‐hTR‐500) was also obtained from Addgene (plasmid # 28170), a gift from Dr. Kathleen Collins.[20], [21]
as §3

T1 sequence (P19821 whole entry): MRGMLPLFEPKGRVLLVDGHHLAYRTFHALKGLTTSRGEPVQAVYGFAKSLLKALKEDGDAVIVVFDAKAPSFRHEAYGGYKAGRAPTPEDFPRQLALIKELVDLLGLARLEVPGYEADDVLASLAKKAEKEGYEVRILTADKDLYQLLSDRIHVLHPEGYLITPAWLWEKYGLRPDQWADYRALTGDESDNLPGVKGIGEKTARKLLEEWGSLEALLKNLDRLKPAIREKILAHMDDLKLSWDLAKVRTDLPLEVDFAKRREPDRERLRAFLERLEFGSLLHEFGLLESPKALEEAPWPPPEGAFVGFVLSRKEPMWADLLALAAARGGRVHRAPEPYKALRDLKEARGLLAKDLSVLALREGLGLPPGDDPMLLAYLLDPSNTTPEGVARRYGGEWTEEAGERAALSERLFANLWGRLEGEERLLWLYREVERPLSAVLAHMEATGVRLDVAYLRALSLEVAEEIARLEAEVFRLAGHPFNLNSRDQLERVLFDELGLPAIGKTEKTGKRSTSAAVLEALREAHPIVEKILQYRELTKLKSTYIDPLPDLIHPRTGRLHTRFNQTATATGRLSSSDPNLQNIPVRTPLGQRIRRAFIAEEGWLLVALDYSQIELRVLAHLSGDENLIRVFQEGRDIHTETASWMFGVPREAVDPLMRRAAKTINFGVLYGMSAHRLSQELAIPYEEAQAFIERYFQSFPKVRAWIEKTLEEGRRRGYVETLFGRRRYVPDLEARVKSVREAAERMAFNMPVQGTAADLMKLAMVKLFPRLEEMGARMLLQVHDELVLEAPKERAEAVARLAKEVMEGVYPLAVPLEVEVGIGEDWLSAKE

On to `C=CC1=C(C)c2cc3[n-]c(cc4nc(cc5[n-]c(cc1n2)c(C)c5C=C)C(C)=C4CCC(=O)O)c(CCC(=O)O)c3C.[Zn+2]` [ZnPP, zinc protoporphyrin], for which the “Effect on expression of TERT, β-catenin and cyclin D1 (western blot)” value in experiment [1] was “nearly eliminated”. The Apoptosis in the experiment with Huh7 cells [2] and in the experiment with Hek293 cells [10] was approximately 50% in each case. Also, the “Effect on DNA synthesis (3H-thymidine incorporation)” value in the experiment with Huh7 cells [3] and in the experiment on Hek293 cells [4] was “severely attenuated DNA synthesis” in each case. The “Labelling/binding of cellular complexes on agarose gels” value in [5] is given as “bound to high molecular weight complexes in a concentration dependent manner”. The “Depression of cellular proliferation relative to vehicle only controls” value with Hek293 cells [6] and with Huh7 cells [9] was “greater than 50%” in each case. Further, the “Effect on proliferation in telomerase negative cells” value with U2OS cells [7] is listed as “only minor effects on proliferation”. In the experiment on U2OS cells [8], the “Effect on apoptosis in telomerase negative cells” value is given as “failed to have an increased effect on apoptosis”. In addition, the “Effect on Taq polymerase” value at Taq DNA polymerase is “minimal inhibition”. Further, the “Sensitivity of viability after TERT transfection” value in experiment [11] was “restored ZnPP sensitivity”.
